The source of these data is ChEMBL document CHEMBL4311972, “Discovery of a benzothiophene-flavonol halting miltefosine and antimonial drug resistance in Leishmania parasites through the application of medicinal chemistry, screening and genomics” (Eur J Med Chem, 2019).

A short description of this data set: Toxicity in Syrian hamster infected with Leishmania infantum BCN150 promastigotes assessed as spleen weight at 40 mg/kg/day, po for 10 days formulated with 50% v/v cyclodextrin (reference value: 0.191 +/- 0.061 g). The note with it: in vivo, 240 h. It is filed as organism-based, Mesocricetus auratus.

`COc1ccc2oc(-c3csc4ccccc34)c(O)c(=O)c2c1`: the Activity was determined as 0.191 g.
